Results: US9776972B2, “Pyrazole derivatives as arginine methyltransferase inhibitors and uses thereof” (priority 2013, dated 2017)

Target: T1, Human CARM1 (PRMT4) (Homo sapiens, UniProt Q86X55)
T1 construct: Flag-CARM1-His; made in house; host or cells: HEK 293F cells (BacMam baculovirus)
T1 sequence (Q86X55 1-585 isoform Q86X55-1): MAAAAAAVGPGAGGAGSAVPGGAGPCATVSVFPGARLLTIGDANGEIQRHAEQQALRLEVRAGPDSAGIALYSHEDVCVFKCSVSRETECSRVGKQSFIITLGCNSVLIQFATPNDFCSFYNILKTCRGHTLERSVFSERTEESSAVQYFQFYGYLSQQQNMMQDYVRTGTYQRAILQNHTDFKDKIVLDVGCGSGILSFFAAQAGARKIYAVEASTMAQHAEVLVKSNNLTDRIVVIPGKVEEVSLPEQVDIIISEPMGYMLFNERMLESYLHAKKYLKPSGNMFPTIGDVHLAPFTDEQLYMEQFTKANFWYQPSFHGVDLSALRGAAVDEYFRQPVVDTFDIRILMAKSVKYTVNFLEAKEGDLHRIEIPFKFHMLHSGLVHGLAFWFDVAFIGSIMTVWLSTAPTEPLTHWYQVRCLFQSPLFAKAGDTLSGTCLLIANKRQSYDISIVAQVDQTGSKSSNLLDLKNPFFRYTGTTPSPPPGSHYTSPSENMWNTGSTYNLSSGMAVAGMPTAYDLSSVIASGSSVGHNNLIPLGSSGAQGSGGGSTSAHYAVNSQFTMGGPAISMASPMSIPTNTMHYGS
Experiment: CARM1 Biochemical Assay (3H-SAM Flashplate, peptide substrate)
Conditions: single experiment or average of multiple experiments
Excerpt: S-adenosylmethionine (SAM), S-adenosylhomocysteine (SAH), bicine, Tween20, dimethylsulfoxide (DMSO), bovine skin gelatin (BSG), sodium butyrate and Tris(2-carboxyethyl)phosphine hydrochloride solution (TCEP) were purchased from Sigma-Aldrich at the highest level of purity possible. ^3H-SAM was purchase from American Radiolabeled Chemicals with a specific activity of 80 Ci/mmol. 384-well streptavidin Flashplates were purchased from PerkinElmer.
Peptide representative of human histone H3 residues 16-30 was synthesized with an N-terminal linker-affinity tag motif and a C-terminal amide cap by 21st Century Biochemicals. […] The sequence was Biot-Ahx-[…]-amide and contained a monomethylated arginine at position 26 (SEQ ID NO.: 14).
Recombinant baculovirus were generated according to Bac-to-Bac kit instructions (Life Technologies). […] Infections were carried out at 37° C. for 48 hours, harvested by centrifugation, and stored at −80° C. for purification.
Column was washed with 500 mM NaCl in buffer A and Flag-CARM1-His was eluted with 200 ug/ml FLAG peptide in buffer A. Pooled fractions were dialyzed in 20 mM Tris, 150 mM NaCl, 5% glycerol and 1 mM DTT, pH 7.8.
General Procedure for CARM1 Enzyme Assays on Peptide Substrates.
The assays were all performed in a buffer consisting of 20 mM Bicine (pH=7.6), 1 mM TCEP, 0.005% BSG, and 0.002% Tween 20, prepared on the day of use. […] DMSO (1 ul) was added to Columns 11, 12, 23, 24, rows A-H for the maximum signal control and 1 ul of SAH, a known product and inhibitor of CARM1, was added to columns 11, 12, 23, 24, rows I-P for the minimum signal control. A cocktail (40 ul) containing the CARM1 enzyme was added by Multidrop Combi (Thermo-Fisher). The compounds were allowed to incubate with CARM1 for 30 min at room temperature, then a cocktail (10 ul) containing ^3H-SAM and peptide was added to initiate the reaction (final volume=51 ul). […] The assays were stopped by the addition of non-radiolabeled SAM (10 ul) to a final concentration of 300 uM, which dilutes the ^3H-SAM to a level where its incorporation into the peptide substrate is no longer detectable. 50 ul of the reaction in the 384-well polypropylene plate was then transferred to a 384-well Flashplate and the biotinylated peptides were allowed to bind to the streptavidin surface for at least 1 hour before being washed once with 0.1% Tween20 in a Biotek ELx405 plate washer. The plates were then read in a PerkinElmer TopCount plate reader to measure the quantity of ^3H-labeled peptide bound to the Flashplate surface, measured as disintegrations per minute (dpm) or alternatively, referred to as counts per minute (cpm).
Where dpm=disintegrations per minute, cmpd=signal in assay well, and min and max are the respective minimum and maximum signal controls.
Where top and bottom are the normally allowed to float, but may be fixed at 100 or 0 respectively in a 3-parameter fit. The Hill Coefficient normally allowed to float but may also be fixed at 1 in a 3-parameter fit. Y is the % inhibition and X is the compound concentration.

| Compound | IC50 [nM] |
| --- | --- |
| CNCCN(C)Cc1cn(C2CC2)nc1-c1ccc(F)cc1 [Compound 13] | 2240 |
| CNCCN(C)Cc1cnn(C2CC2)c1-c1ccc(F)cc1 [Compound 14] | 970 |
| CNCCN(C)Cc1cn(C(C)C)nc1-c1ccc(F)cc1 [Compound 15] | 3400 |
| CNCCN(C)Cc1cnn(C(C)C)c1-c1ccc(F)cc1 [Compound 16] | 6740 |
| CNCCN(C)Cc1cn[nH]c1-c1ccc(C#N)cc1 [Compound 17] | 1560 |
| CNCCN(C)Cc1cn[nH]c1-c1cc(F)cc(F)c1 [Compound 18] | 656 |
| CN(CCN)Cc1n[nH]cc1-c1ccc(C2CCOCC2)cc1 [Compound 145] | 4920 |
| COc1ccc(-c2n[nH]cc2CN(C)CCN)c(Cl)c1 [Compound 146] | 5770 |
| CN(CCN)Cc1c[nH]nc1-c1cccc(N(C)C)c1 [Compound 149] | 1300 |
| CCOC(=O)c1cccc(-c2n[nH]cc2CN(C)CCN)c1 [Compound 150] | 2420 |
| COc1cc(F)ccc1-c1n[nH]cc1CN(C)CCN [Compound 151] | 8320 |
| Cc1cc(F)ccc1-c1n[nH]cc1CN(C)CCN [Compound 152] | 6870 |
| COc1ccc(-c2n[nH]cc2CN(C)CCN)cc1 [Compound 153] | 2060 |
| CN(CCN)Cc1c[nH]nc1-c1cc(Cl)ccc1F [Compound 156] | 6740 |
| Cc1ccccc1-c1n[nH]cc1CN(C)CCN [Compound 161] | 6130 |
| Cc1ccc(-c2n[nH]cc2CN(C)CCN)cc1 [Compound 162] | 612 |
| CCn1cc(CN(C)CCNC)c(-c2ccc(OC(C)C)cc2)n1 [Compound 213] | 200 |
| CNCCN(C)Cc1cn(C2CCCC2)nc1-c1ccc(OC(C)C)cc1 [Compound 214] | 168 |
| CNCCN(C)Cc1cn(C2CCOC2)nc1-c1ccc(OC(C)C)cc1 (centres unmarked) [Compound 215] | 299 |
| CNCCN(C)Cc1cnn(C2CCOC2)c1-c1ccc(OC(C)C)cc1 (centres unmarked) [Compound 216] | 285 |
| CNCCN(C)Cc1cn(Cc2ccccc2)nc1-c1ccc(OC(C)C)cc1 [Compound 217] | 620 |
| C=CCn1cc(CN(C)CCNC)c(-c2ccc(OC(C)C)cc2)n1 [Compound 218] | 414 |
| C=CCn1ncc(CN(C)CCNC)c1-c1ccc(OC(C)C)cc1 [Compound 219] | 142 |
